# Assay results: patent publication US12622892B2, “Methods for treating endometriosis” (THE TEXAS A&M UNIVERSITY SYSTEM, priority 2020, dated 2026)
# What was measured:
# ESECT-7 cells [1] = experiment: α-SMA immunofluorescence, ESECT-7; format: cell-based, human; settings: vs control, FIG. 5A
# Experimental: Immunofluorescence: ESECT-7 and ESECT-40 cells were seeded in Nunc chambered cover-glass followed by various drug treatments. The cells were fixed with 4% paraformaldehyde in PBS for 20 minutes at 37° C. Cells were then blocked and incubated overnight with primary α-SMA antibody in the buffer (5% bovine serum albumin in PBS) at 4° C., followed by incubation with Alexa Fluor conjugated secondary antibody at a dilution of 1:250 for 2 hours at room temperature. Finally, cells were observed using a Zeiss confocal fluorescence microscope.
# NEM cells = experiment: Western blotting of growth promoting and proapoptotic gene products, NEM cells; format: cell-based, human
# ESECT-40 cells [2] = experiment: Cell proliferation assay (MTT), ESECT-40; format: cell-based, human; settings: 24 hr; 5-10 μM DIM-C-pPhOH-3-Cl-5-OCH3, 15-25 μM DIM-C-pPhOH; FIG. 2C
# Experimental: (§1) Primary human endometriotic stromal cells from endometriosis patients: Ovarian endometrioma were isolated from endometriosis patients in the proliferative phase following the IRB-approved protocol. Isolated ectopic lesions were digested with collagenase type 3 (300 μg/ml) and DNaseI (40 μg/ml) for 90 min at 37° C., and then tissues were filtered through 150, 100, and 40 μm sieves to isolate endometrial stromal cells. The collected endometrial stromal cells were cultured in DMEM/F12 with 10% FBS plus 1× antibiotic/antimycotic solution and then validated by flow cytometry with a CD90 antibody (a mesenchymal marker). Henceforth, we refer to the stromal cells as ectopic endometrium isolated ovarian endometrioma (ESECT). As the control, primary normal endometrial stromal cells isolated from the biopsy of the eutopic endometrium of normal women (NEM) in the proliferative phase. All cells were incubated at 37° C. in CO2 incubator in an atmosphere of humidified 5% CO2 and 95% air.
# (§2) Cell proliferation assay: Patient-derived endometriotic cells ESECT-7 and ESECT-40 were seeded into a 96-well plate, and the cells were then treated for 24 hr with either DMSO or different concentrations of DIM-C-pPhOH and DIM-C-pPhOH-3-Cl-5-OCH3. […] Dimethyl sulfoxide (DMSO) was added and incubated at […] for 10 min, and absorbance was measured at 570 nm.
# NR4A1 = molecular target: T1, NR4A1 (Mus musculus, UniProt P12813); settings: C2C12 muscle cells; cited from earlier work
# T1 construct: endogenous in cells; host or cells: C2C12 muscle cells
# ESECT-7 cells [3] = experiment: Western blotting of growth promoting and proapoptotic gene products, ESECT-7; format: cell-based, human
# Text: (§3) Reagents and Antibodies: Annexin V Dead Cell Apoptosis Kit (V13241) was purchased from Invitrogen. The primary antibodies used were EGFR (4267, 1:1000), Survivin (2808, 1:1000), c-Caspase-3 (9661, 1; 1000), c-PARP (9541, 1:1000) from Cell Signaling Technology (Danvers, MA) and c-Myc (sc-40, 1:500), Bcl-2 (sc-509, 1:500) and Bax (sc-20067, 1:500) from Santacruz Biotechnology (Santacruz, CA), NR4A1 (ab109180, 1:3000) and α-SMA (ab32575, 1:3000) from Abcam (Cambridge, MA), β-Actin (A1978, 1:10000) from Sigma Aldrich Corporation (Milwaukee, WI). COL1A1 (GTX112731, 1:2000), CTGF (GTX124232, 1:2000) and FN (GTX112794, 1:2000) from GeneTex, Inc. (Irvine, CA). Secondary antibodies for rabbit (7074), mouse (7076) and Anti-rabbit Alexa Fluor (4412) purchased from Cell Signaling Technology (Danvers, MA). […]
# (§4) Western Blotting: ESECT-7 and ESECT-40 cells (2×105) were seeded and allowed to attach for 24 hr, and cells were then treated for 24 hr with either DMSO or different concentrations of DIM-C-pPhOH and DIM-C-pPhOH-3-Cl-5-OCH3. Cells were then lysed and whole-cell lysates were resolved in 10% SDS-PAGE gels and proteins were transferred using PVDF membrane by wet blotting followed by primary and secondary antibody incubation and detected using ECL reagent as described.
# ESECT-7 cells [4] = experiment: Cell proliferation assay (MTT), ESECT-7; format: cell-based, human; settings: 24 hr; 5-10 μM DIM-C-pPhOH-3-Cl-5-OCH3, 15-25 μM DIM-C-pPhOH; FIG. 2C
# Experimental: as §1, §2
# ESECT-40 cells [5] = experiment: Western blotting of growth promoting and proapoptotic gene products, ESECT-40; format: cell-based, human
# Text: as §3, §4
# GAL4-NR4A1 = molecular target: T2, GAL4-NR4A1 (Homo sapiens, UniProt P22736); experiment: Luciferase assay, GAL4-NR4A1 chimera/UAS-luc in ESECT-7 cells; format: cell-based; settings: ESECT-7 cells transfected with GAL4-NR4A1 chimera/UAS-luc; 18 hr treatment; FIG. 2A
# T2 construct: GAL4 (fusion partner); expressed in transfected cells; host or cells: ESECT-7 patient-derived endometriotic cells
# Experimental: Luciferase assay: ESECT-7 and ESECT-40 cells were plated on 12-well plates in DMEM/F12 supplemented with 2.5% charcoal-stripped FBS. After overnight attachment and growth, various amounts of DNA [i.e., UASx5-Luc (500 ng), GAL4-NR4A1 (50 ng), NBREx3-Luc (800 ng), NurREx3-Luc (800 ng) and Flag-NR4A1 (80 ng)] were co-transfected into each well using Lipofectamine 2000 reagent (Invitrogen, Carlsbad, CA) according to the manufacturer's protocol. After 6 hr of transfection, cells were treated with plating medium (as above) containing either solvent (DMSO) or indicated concentrations of the compound for 18 hr. Cells were then lysed and cell extracts were used for chemiluminescence quantification of luciferase activity. Luciferase activity values were normalized against corresponding protein concentration values determined by Bradford assay. Both GAL4- and Flag-NR4A1 constructs contain full-length NR4A1 coding sequence and all the plasmids used in this study were previously described.
# T2 sequence (P22736 with tags, fused parts or gaps): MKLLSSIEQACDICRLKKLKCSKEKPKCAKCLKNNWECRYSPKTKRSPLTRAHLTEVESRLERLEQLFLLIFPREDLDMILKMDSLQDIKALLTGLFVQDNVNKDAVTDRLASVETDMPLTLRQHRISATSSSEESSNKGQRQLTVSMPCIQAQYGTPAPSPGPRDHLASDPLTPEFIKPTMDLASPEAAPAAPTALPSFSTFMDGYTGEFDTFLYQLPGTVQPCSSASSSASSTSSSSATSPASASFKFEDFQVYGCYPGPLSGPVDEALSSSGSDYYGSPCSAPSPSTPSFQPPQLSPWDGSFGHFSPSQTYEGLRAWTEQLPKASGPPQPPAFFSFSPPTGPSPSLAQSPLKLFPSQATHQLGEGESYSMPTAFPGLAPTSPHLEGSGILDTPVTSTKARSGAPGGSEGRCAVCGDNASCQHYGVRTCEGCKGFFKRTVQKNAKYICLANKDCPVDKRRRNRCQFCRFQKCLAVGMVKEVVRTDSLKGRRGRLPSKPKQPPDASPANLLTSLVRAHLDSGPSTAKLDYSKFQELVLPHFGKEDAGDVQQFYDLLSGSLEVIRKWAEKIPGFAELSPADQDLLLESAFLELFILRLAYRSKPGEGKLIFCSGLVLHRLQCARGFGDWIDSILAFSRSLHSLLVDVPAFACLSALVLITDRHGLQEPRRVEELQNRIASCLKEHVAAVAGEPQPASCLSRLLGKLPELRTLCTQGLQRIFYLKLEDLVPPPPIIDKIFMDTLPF
# T1 sequence (P12813 whole entry): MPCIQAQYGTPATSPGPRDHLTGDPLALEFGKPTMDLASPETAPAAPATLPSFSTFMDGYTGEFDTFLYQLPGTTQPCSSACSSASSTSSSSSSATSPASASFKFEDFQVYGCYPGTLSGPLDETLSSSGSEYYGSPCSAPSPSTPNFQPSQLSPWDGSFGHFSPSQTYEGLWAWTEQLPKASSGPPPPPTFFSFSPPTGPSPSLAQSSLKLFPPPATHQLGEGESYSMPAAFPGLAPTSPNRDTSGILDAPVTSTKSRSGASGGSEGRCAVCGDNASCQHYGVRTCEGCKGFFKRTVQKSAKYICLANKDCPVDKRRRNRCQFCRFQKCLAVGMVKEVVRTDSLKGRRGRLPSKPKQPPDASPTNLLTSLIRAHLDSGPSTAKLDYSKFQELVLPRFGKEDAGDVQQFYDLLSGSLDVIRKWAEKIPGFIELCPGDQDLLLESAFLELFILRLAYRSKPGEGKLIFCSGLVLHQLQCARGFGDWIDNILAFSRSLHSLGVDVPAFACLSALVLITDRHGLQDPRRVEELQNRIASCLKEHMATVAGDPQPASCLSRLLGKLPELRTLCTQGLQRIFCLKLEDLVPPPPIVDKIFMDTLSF
smiles,measurement,setting,value
COc1cc(C(c2c[nH]c3ccccc23)c2c[nH]c3ccccc23)cc(Cl)c1O [DIM-C-pPhOH-3-Cl-5-OCH3],expression of SMA levels,ESECT-7 cells [1],decreased expression of SMA levels
same,levels of the cleaved form of PARP and Bax,"NEM cells; 25 μM DIM-C-pPhOH, 10 μM DIM-C-pPhOH-3-Cl-5-OCH3, vs DMSO control, FIG. 4D",did not enhance
same,cMyc and EGFR expression,"NEM cells; 15-25 μM DIM-C-pPhOH, 5-10 μM DIM-C-pPhOH-3-Cl-5-OCH3, vs DMSO control, FIG. 4B",did not decrease
same,growth of ESECT-40 cells,ESECT-40 cells [2],effectively inhibited the growth
same,"NR4A1 agonist activity, induction of genes involved in glucose uptake",NR4A1,worked as NR4A1 agonists
same,expression of EGFR and cMyc,"ESECT-7 cells [3]; 5-10 μM, 24 hr, FIG. 2D",downregulated
same,"markers of apoptosis (downregulation of survivin and Bcl-2, induced Bax, cleaved PARP and caspase-3)","ESECT-7 cells [3]; Five μM, 24 hours, FIG. 3C",significantly induced several markers of apoptosis
same,growth of ESECT-7 cells,ESECT-7 cells [4],effectively inhibited the growth
same,expression of EGFR and cMyc,"ESECT-40 cells [5]; 5-10 μM, 24 hr, FIG. 2D",downregulated
same,"markers of apoptosis (downregulation of survivin and Bcl-2, induced Bax, cleaved PARP and caspase-3)","ESECT-40 cells [5]; Five μM, 24 hours, FIG. 3C",significantly induced several markers of apoptosis
same,intrinsic transcriptional activity of GAL4-NR4A1,GAL4-NR4A1,inhibited the intrinsic transcriptional activity
